# Results from ChEMBL document CHEMBL3301562, “MMV Box screening against Plasmodium falciparum protein kinases and aminoacyl tRNA synthetases”.
# What was measured:
# Type in all cases: functional
# [1] = molecular target: T1, Cdk-related protein kinase 6 (Plasmodium falciparum, UniProt O77239); assay: Final concentrations were 1.5 uM ATP, 5 mM MnCl2, and 15 ug/ml PK6 in a buffer of 100 mM Tris-HCl (pH 7.5). 50 ug/mL MBP was provided as the substrate; 10 uM staurosporine was used as a control inhibitor. Incubation time was 3 hours and 40 minutes.The catalytic activity of each kinase was considered proportional to ATP consumed, as determined from measurements of residual [ATP] with the luciferase-based reagent Kinase-Glo (Promega) following incubation. Luminescence (proportional to residual [ATP]) was measured on the plate readers FLx800 (BioTek Instruments, Winooski, VT, USA) and MicroBeta2.
# T1 sequence (O77239 whole entry): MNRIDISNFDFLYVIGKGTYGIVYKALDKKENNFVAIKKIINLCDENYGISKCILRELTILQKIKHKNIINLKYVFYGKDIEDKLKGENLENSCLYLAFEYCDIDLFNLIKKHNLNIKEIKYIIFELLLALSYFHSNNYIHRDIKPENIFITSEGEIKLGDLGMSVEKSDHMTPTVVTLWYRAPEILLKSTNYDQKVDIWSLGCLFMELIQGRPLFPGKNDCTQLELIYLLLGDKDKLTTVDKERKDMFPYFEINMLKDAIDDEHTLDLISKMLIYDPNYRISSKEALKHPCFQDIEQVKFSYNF
# [2] = molecular target: T2, Putative uncharacterized protein pk7 (Plasmodium falciparum, UniProt O96214); assay: Final concentrations were 1 uM ATP, 2 mM DTT, 20 mM MgCl2, 2 mM MnCl2, 0.01% BSA, and 6 ug/ml PK7, in a buffer of 20 mM Tris-HCl (pH 7.5). The enzyme itself was the only substrate present (since autophosphorylation occurs); 100 uM 1NA-PP1 was used as a control inhibitor. Incubation time was 3 hours.
# T2 sequence (O96214 whole entry): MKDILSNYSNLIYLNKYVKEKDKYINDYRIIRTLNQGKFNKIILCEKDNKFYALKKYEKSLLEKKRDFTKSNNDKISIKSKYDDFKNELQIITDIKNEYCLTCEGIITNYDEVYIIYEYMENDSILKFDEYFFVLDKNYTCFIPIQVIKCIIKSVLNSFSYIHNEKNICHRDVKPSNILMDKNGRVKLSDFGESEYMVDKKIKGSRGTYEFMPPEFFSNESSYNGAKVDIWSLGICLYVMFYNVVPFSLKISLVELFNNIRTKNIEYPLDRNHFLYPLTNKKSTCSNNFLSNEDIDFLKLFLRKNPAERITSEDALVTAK
# [3] = molecular target: T3, Mitogen-activated protein kinase (Plasmodium falciparum, UniProt Q25917); assay: Final concentrations were 1 uM ATP, 0.5 mM DTT, 1 mM MgCl2, 0.5 mg/mL BSA, and 10 ug/ml MAP2 in a buffer of 50 mM HEPES (pH 7.0). 0.5 mg/mL histone III-S served as the substrate (13); 100 uM AMP-PNP, an ATP analog, was used as a control inhibitor. Incubation time was 4 hours.
# T3 sequence (Q25917 whole entry): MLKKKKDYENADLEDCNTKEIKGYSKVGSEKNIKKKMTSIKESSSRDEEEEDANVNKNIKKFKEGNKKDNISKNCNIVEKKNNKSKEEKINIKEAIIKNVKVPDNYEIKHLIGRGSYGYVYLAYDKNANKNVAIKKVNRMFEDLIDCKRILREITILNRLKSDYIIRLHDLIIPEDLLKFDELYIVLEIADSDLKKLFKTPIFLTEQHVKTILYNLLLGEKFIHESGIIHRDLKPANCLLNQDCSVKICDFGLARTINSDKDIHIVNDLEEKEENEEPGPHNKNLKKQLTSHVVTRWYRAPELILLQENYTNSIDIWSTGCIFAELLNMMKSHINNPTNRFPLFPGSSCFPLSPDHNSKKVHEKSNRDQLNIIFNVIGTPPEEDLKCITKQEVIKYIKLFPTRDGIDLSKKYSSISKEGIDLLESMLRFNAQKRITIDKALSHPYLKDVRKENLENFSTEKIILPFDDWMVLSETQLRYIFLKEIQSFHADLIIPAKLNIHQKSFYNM
# [4] = molecular target: Calcium-dependent protein kinase 1 (Plasmodium falciparum, UniProt P62344); assay: MMV: CDPK1 Protein kinase inhibition assay using recombinant PfCDPK1, syntide 2 peptide substrate, ATP and KinaseGlo to measure % inhibition at 1 uM MMV box compound.
# Sequence of Calcium-dependent protein kinase 1 (P62344 whole entry): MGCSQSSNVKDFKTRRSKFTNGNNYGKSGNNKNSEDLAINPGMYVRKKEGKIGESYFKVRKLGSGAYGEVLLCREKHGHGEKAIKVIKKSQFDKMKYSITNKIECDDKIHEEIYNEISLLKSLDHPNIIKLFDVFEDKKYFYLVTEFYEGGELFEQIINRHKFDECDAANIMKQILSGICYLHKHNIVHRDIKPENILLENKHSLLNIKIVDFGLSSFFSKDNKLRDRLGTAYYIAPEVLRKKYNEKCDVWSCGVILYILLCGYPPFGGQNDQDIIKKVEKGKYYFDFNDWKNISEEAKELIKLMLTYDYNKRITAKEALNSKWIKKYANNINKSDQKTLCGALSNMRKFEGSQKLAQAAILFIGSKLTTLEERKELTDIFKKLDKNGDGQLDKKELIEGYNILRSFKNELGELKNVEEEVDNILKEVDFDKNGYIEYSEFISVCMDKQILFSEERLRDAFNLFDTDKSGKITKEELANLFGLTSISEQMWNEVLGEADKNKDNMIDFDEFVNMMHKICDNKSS
# [5] = molecular target: T4, Calcium-dependent protein kinase 4 (Plasmodium falciparum (isolate 3D7), UniProt Q8IBS5); assay: MMV: CDPK4 Protein kinase inhibition assay using recombinant PfCDPK4, syntide2 peptide substrate, ATP and KinaseGlo to measure % inhibition at 1 uM MMV box compound.
# T4 sequence (Q8IBS5 whole entry): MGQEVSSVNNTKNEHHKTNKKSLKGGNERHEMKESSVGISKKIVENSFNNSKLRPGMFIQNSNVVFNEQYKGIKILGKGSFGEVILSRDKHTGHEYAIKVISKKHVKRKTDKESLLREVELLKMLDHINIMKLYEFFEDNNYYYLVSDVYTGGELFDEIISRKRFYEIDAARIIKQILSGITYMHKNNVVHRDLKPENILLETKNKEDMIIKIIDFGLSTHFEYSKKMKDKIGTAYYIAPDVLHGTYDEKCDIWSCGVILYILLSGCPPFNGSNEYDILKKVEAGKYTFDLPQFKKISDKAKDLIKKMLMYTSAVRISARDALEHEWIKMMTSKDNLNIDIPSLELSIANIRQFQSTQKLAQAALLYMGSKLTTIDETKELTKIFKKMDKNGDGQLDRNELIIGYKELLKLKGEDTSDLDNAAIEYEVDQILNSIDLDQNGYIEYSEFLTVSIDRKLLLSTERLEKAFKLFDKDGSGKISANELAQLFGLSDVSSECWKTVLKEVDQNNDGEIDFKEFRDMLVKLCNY
# Proline--tRNA ligase = molecular target: T5, Proline--tRNA ligase (Plasmodium falciparum (isolate 3D7), UniProt Q8I5R7); assay: MMV: ProRS recombinant Plasmodium falciparum Prolyl-tRNA-synthetase, assay with yeast tRNA, ATP, and proline and 3 uM MMV malaria box compound, assay read out with kinase glo as % inhibition.
# T5 sequence (Q8I5R7 whole entry): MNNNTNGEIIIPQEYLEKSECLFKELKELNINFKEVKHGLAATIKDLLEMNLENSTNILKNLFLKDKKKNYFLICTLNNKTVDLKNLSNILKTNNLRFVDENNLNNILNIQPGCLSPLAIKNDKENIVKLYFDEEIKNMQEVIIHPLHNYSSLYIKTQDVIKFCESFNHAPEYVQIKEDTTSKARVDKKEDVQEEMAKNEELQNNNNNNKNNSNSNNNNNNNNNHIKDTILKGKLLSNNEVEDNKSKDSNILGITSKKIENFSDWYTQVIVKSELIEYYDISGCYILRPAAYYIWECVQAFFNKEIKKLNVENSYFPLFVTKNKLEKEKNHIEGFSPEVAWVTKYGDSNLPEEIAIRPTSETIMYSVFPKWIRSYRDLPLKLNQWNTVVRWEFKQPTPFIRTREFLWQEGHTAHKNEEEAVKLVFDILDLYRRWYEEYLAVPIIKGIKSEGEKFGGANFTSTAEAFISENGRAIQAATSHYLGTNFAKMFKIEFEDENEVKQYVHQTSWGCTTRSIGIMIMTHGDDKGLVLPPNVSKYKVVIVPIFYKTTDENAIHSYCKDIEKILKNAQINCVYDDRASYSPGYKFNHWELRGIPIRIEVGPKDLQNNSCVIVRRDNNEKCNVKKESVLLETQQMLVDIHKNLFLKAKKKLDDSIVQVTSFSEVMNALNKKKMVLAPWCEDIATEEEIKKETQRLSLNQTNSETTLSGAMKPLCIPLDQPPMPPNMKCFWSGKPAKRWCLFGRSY
# Lysine--tRNA ligase = Lysine--tRNA ligase (Plasmodium falciparum (isolate 3D7), UniProt Q8IDJ8); assay: MMV: KRS recombinant Plasmodium falciparum Lysyl-tRNA-synthetase, assay with yeast tRNA, ATP, and lysine and 3 uM MMV malaria box compound, assay read out with kinase glo as % inhibition.
# Sequence of Lysine--tRNA ligase (Q8IDJ8 whole entry): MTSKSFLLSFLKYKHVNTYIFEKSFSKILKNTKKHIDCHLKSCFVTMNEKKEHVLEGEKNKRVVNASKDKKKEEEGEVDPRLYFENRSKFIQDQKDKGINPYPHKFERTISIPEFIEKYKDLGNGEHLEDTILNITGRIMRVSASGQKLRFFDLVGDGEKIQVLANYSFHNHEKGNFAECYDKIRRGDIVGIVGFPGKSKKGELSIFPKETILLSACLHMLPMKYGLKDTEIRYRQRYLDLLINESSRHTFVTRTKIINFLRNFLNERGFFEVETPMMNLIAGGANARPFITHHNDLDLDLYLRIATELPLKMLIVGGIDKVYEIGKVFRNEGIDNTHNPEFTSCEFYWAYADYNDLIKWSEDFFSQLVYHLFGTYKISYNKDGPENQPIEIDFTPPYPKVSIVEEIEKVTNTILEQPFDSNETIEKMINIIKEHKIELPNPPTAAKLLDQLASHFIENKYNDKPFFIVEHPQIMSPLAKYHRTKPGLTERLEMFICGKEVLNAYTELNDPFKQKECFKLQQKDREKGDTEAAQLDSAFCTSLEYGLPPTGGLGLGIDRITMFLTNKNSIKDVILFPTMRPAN
SMILES,IC50 [1] [nM],IC50 [2] [nM],IC50 [3] [nM],IC50 [4] [nM],IC50 [5] [nM],IC50 (Proline--tRNA ligase) [nM],IC50 (Lysine--tRNA ligase) [nM]
CCOC(=O)c1cnc2c(C)cc(C)cc2c1Nc1ccc(OC)c(OC)c1,> 1000,> 1000,> 1000,> 1000,> 1000,> 2500,> 2500
CCC(O)c1ccc(Br)cc1NC(=O)c1cccc(Cl)c1 (configuration not stated),> 1000,> 1000,> 1000,> 1000,> 1000,> 2500,> 2500
Oc1c(CN2CCN(c3ccccc3F)CC2)cc(Br)c2cccnc12,> 1000,> 1000,> 1000,> 1000,> 1000,> 2500,> 2500
O=C(Nc1ccccc1O)c1ccc(-c2ccc(Cl)cc2Cl)o1,> 1000,> 1000,> 1000,> 1000,> 1000,> 2500,> 2500
CCN(CC)S(=O)(=O)c1ccc(-c2csc(Nc3ccc(C)c(C)c3)n2)cc1,> 1000,> 1000,> 1000,> 1000,> 1000,> 2500,> 2500
COc1ccc(-c2c(C)nn3c(N)c(C#N)cnc23)cc1OC,> 1000,> 1000,> 1000,> 1000,> 1000,> 2500,> 2500
O=C(Nc1ccc(CN2CCOCC2)cc1)c1ccc(-c2cc(Cl)ccc2Cl)o1,> 1000,> 1000,> 1000,> 1000,> 1000,> 2500,> 2500
CCN(CC)CCNc1ccnc2cc(Cl)ccc12,> 1000,> 1000,> 1000,> 1000,> 1000,> 2500,> 2500
COc1ccc2nc(C)cc(Nc3ccccc3O)c2c1,> 1000,> 1000,> 1000,> 1000,> 1000,> 2500,> 2500
O=[N+]([O-])c1ccc(C=NNc2nc3ccccc3[nH]2)cc1,> 1000,> 1000,> 1000,> 1000,> 1000,> 2500,> 2500
COc1ccc(C(=O)Nc2ccc(Cl)cc2C(=O)Nc2ccncc2)cc1,> 1000,> 1000,> 1000,> 1000,> 1000,> 2500,> 2500
CCn1nc(-c2ccc(C(=O)OC)cc2)nc2c(=O)n(C)c(=O)nc1-2,> 1000,> 1000,> 1000,> 1000,> 1000,> 2500,> 2500
CCOc1ccc(CCNC(=O)c2cccs2)cc1OCC,> 1000,> 1000,> 1000,> 1000,> 1000,> 2500,> 2500
N=c1c2ccccc2nnn1-c1cccc(C(F)(F)F)c1,> 1000,> 1000,> 1000,> 1000,> 1000,> 2500,> 2500
O=C(Nc1ccccc1O)c1ccc(Oc2cccc(C(=O)Nc3ccccc3O)c2)cc1,> 1000,> 1000,> 1000,> 1000,> 1000,> 2500,> 2500
CC1CCN(Cc2ccc(NC(=O)c3cc4ccc5cccnc5c4[nH]3)cc2)CC1,> 1000,> 1000,> 1000,> 1000,> 1000,> 2500,> 2500
CCOc1ccc(/C=C/c2nc(=O)c3ccccc3o2)cc1,> 1000,> 1000,> 1000,> 1000,> 1000,> 2500,> 2500
COc1ccc(NC(=O)C2c3ccccc3C(=O)N(CC(C)C)C2c2cccs2)cc1 (configuration not stated),> 1000,> 1000,> 1000,> 1000,> 1000,> 2500,> 2500
CC(C)=CCN1CCC(C(=O)Nc2ccc(-c3nc4ccccc4[nH]3)cc2)CC1,> 1000,> 1000,> 1000,> 1000,> 1000,> 2500,> 2500
O=C(Nc1ccc(Br)cc1)Nc1cccc(Cl)c1,> 1000,> 1000,> 1000,> 1000,> 1000,> 2500,> 2500
Cc1cc(Nc2ccc(Cl)cc2)n2nc(C(F)(F)F)nc2n1,> 1000,> 1000,> 1000,> 1000,> 1000,> 2500,> 2500
